The text below walks through data of US20110039847A1, “AMIDE DERIVATIVES AS SIRTUIN MODULATORS” (Sirtris Pharmaceuticals, Inc, priority 2007, published 2011).

In this experiment the target is T1, SIRT1 (Homo sapiens, UniProt Q96EB6).
T1 sequence (Q96EB6 1-747): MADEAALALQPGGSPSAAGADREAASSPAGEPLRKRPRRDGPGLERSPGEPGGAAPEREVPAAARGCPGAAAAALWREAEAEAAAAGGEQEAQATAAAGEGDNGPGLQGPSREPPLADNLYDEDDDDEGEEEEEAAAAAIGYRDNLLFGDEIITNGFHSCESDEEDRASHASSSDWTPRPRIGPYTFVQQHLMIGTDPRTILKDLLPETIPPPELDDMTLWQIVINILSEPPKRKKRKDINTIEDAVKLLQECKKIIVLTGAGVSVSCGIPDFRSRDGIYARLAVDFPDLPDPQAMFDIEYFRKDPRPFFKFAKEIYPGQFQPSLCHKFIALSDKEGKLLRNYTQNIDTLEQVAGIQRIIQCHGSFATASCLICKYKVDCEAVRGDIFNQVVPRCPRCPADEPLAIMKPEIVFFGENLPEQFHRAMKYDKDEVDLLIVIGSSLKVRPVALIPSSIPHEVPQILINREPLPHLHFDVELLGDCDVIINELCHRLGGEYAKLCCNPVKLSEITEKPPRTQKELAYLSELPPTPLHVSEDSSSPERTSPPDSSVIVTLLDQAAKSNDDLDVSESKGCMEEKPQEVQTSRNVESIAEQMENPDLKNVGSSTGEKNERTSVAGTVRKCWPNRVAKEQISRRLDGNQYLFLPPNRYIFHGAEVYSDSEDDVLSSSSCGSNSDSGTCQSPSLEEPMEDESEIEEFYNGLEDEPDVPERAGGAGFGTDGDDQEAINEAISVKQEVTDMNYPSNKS
In words: Mass spectrometry based SIRT1 deacetylation (activation) assay. The format is biochemical. Conditions: 0.5 μM peptide substrate, 120 μM βNAD+, 10 nM SIRT1, 25 min at 25° C.; for Emax: 25 min, read-out: % Fold Act. (percent maximum fold activation).

For the molecule `CN(C)CCNc1cc(C(=O)Nc2ccccc2-c2ncc(C(C)(C)C)s2)nc(-c2ccccc2)c1` [Compound 29], the EC1.5 result is “B (EC1.5>1 and ≦10 uM)”; the Emax is no less than 300%.
For `CN(C)CCNc1cc(C(=O)Nc2ccccc2-n2cc(-c3ccccc3)cn2)nc(-c2ccccc2)n1` [Compound 24], the EC1.5 result is “B (EC1.5>1 and ≦10 uM)”; the Emax fell in the range of 150 to 300%.
Consider `CN(C)CCNC(=O)c1nnc(-c2ccccc2NC(=O)c2cc(NCCN(C)C)nc(-c3ccccc3)n2)s1` [Compound 58], for which the EC1.5 entry is “A (EC1.5≦1 uM)” and the Emax is no less than 300%.
For `O=C(Nc1ccccc1-c1nnc(N2CCOCC2)s1)c1cc(NC(CO)CO)nc(-c2ccccc2)n1` [Compound 102], in that order: “A (EC1.5≦1 uM)” and no less than 300%.
For `CN(C)CCNc1cc(C(=O)Nc2ccccc2-c2ncc(-c3ccccc3)o2)nc(-c2ccccc2)c1` [Compound 30] the same measures were “A (EC1.5≦1 uM)” and no less than 300%.
For `CN(C)CCN(C)c1cc(C(=O)Nc2ccccc2-c2nncs2)nc(-c2ccccc2)n1` [Compound 27] the same measures were “A (EC1.5≦1 uM)” and no less than 300%.
Regarding `CCc1nnc(-c2ccccc2NC(=O)c2cc(NCCN(C)C)nc(-c3ccccc3)n2)s1` [Compound 53], the EC1.5 result is “B (EC1.5>1 and ≦10 uM)”; the Emax is 150 to 300%.
As to `CN(C)CCNc1cc(C(=O)Nc2ccccc2-c2nccs2)nc(-c2ccccc2)n1` [Compound 8], the EC1.5 result is “A (EC1.5≦1 uM)” and the Emax was no less than 300%.
For `COCCN(CCOC)c1cc(C(=O)Nc2ccccc2C(C)=O)nc(-c2ccccc2)n1` [Compound 141] the same measures were “A (EC1.5≦1 uM)” and no less than 300%.
For `CCN(CCN(C)C)c1cc(C(=O)Nc2ccccc2-c2nnc(-c3ccccn3)s2)nc(-c2ccccc2)n1` [Compound 74] the same measures were “A (EC1.5≦1 uM)” and no less than 300%.
Take `CCN(CCN(C)C)c1cc(C(=O)Nc2ccccc2-c2nnc(C3CCCC3)s2)nc(-c2ccccc2)n1` [Compound 50]: the EC1.5 result is “B (EC1.5>1 and ≦10 uM)”; the Emax was 150 to 300%.
Consider `CC(C)Cc1nnc(-c2ccccc2NC(=O)c2cc(NCCN(C)C)nc(-c3ccccc3)n2)s1` [Compound 60], for which the EC1.5 entry is recorded as “A (EC1.5≦1 uM)” and the Emax is 150 to 300%.
Consider `CN(C)CCNc1cc(C(=O)Nc2ccccc2-c2nc(-c3ccccc3)cs2)nc(-c2ccccc2)n1` [Compound 14], for which the EC1.5 result is “B (EC1.5>1 and ≦10 uM)”; the Emax lay in the range of 150 to 300%.
As for `CCN(CCN(C)C)c1cc(C(=O)Nc2ccccc2C(=O)NC2CCNC2)nc(-c2ccccc2)n1` (stereo not drawn) [Compound 175, 6-((2-(dimethylamino)ethyl)(ethyl)amino)-2-phenyl-N-(2-(pyrrolidin-3-ylcarbamoyl)phenyl)pyrimidine-4-carboxamide], the EC1.5 result is “A (EC1.5≦1 uM)” and the Emax is no less than 300%.
As for `CCN(CCN(C)C)c1cc(C(=O)Nc2ccccc2-c2nnc([S+](C)[O-])s2)nc(-c2ccccc2)n1` (stereo not drawn) [Compound 116], the EC1.5 entry was “A (EC1.5≦1 uM)” and the Emax is no less than 300%.
For `CCOC(=O)c1nnc(-c2ccccc2NC(=O)c2cc(N(C)CCN(C)C)nc(-c3ccccc3)n2)s1` [Compound 57], in that order: “C (EC1.5>10 uM)” and less than 150%.
For `O=C(Nc1ccccc1-c1nncs1)c1cc(OC[C@@H](O)CO)nc(-c2ccccc2)n1` [Compound 110] the same measures were “A (EC1.5≦1 uM)” and no less than 300%.
Consider `CCN(CCN(C)C)c1cc(C(=O)Nc2ccccc2-c2nnc(-c3cccnc3)s2)nc(-c2ccccc2)n1` [Compound 81], for which the EC1.5 entry is “A (EC1.5≦1 uM)” and the Emax is no less than 300%.
